# In PMC12218921, “An adaptive peptide-binding site in ubiquitin receptor hRpn13 revealed by structural studies” (Nature Communications, 2025):
# Test system: hRpn13 Pru
# Assay: 1H-15N HSQC NMR, DTT versus TCEP in buffer
# Assay type: binding, human
# Conditions: 1 mM DTT or TCEP, 15N-hRpn13 Pru, 25 °C, 850 MHz
# Excerpt: Although DTT is trapped bound to C88 in the crystal, we expected that its interaction with hRpn13 in solution is likely to be transient and dynamic. Nonetheless, we tested whether NMR spectroscopy could detect differences between hRpn13 Pru dissolved in buffer containing DTT versus TCEP. We used previously obtained NMR resonance assignments[13] and 2D ^1H-^15N HSQC experiments to detect the hRpn13 amide signals, which are sensitive to changes in their chemical environment, for ^15N-labeled hRpn13 Pru with either 1 mM DTT or TCEP present in the buffer. […] C60 and C80 by contrast show no spectral perturbations (Supplementary Fig. 8a).
# All ^1H-^15N HSQC experiments were acquired on samples dissolved in NMR buffer (20 mM sodium phosphate, pH 6.5, 50 mM NaCl, 1 mM TCEP, 10% D2O) unless specified, in which case 2 mM DTT replaced TCEP. The samples were purified in DTT-containing buffer and then exchanged into NMR buffer by using Zeba Protein Desalting columns (Thermo Fisher Scientific). The pH was measured and adjusted to 6.5. […] The data were processed by NMRpipe[46] (version 11.5) and spectra visualized and analyzed with NMR-FAM-SPARKY[47] (version 3.190) by using previous chemical shift assignments[12],[23] and NMRbox[48]. The amide nitrogen and hydrogen chemical shift perturbations (CSP) were mapped for each amino acid according to Eq. 1.1 CSP=0.2ΔδN2+ΔδH2 […]
compound,measurement,value
"O[C@@H](CS)[C@@H](O)CS (racemic) [DTT, dithiothreitol]","HSQC signal shifting, DTT versus TCEP","slight signal shifting, including for C88"
